Laboratory results: patent US9693556B2, “Herbicidal pyridazinone derivatives” (SYNGENTA LIMITED, priority 2011, dated 2017)

How the values were obtained:
Format in all cases: in vivo
Solanum nigrum (SOLNI) [1] = experiment: Pre-emergence herbicidal glasshouse test on Solanum nigrum; details: pre-emergence; 1000 g/h; evaluated after 13 days
Method in brief: (§1)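 Read-out: percentage herbicidal damage 13 days after spraying, given on a five-point scale (5=80-100%, 4=60-79%, 3=40-59%, 2=20-39%, 1=0-19%). Pots of standard soil; application at 1000 g/h, one day post-sowing for pre-emergence, eight days for post-emergence.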

[2] = test system: Amaranthus retoflexus (AMARE); experiment: Post-emergence herbicidal glasshouse test on Amaranthus retoflexus; details: post-emergence; 1000 g/h; evaluated after 13 days
Method in brief: as §1

[3] = test system: Ipomoea hederacea (IPOHE); experiment: Pre-emergence herbicidal glasshouse test on Ipomoea hederacea; details: pre-emergence; 1000 g/h; evaluated after 13 days
Method in brief: as §1

Solanum nigrum (SOLNI) [4] = experiment: Post-emergence herbicidal glasshouse test on Solanum nigrum; details: post-emergence; 1000 g/h; evaluated after 13 days
Method in brief: as §1

[5] = test system: Echinochloa crus-galli (ECHCG); experiment: Pre-emergence herbicidal glasshouse test on Echinochloa crus-galli; details: pre-emergence; 1000 g/h; evaluated after 13 days
Method in brief: as §1

Setaria faberi (SETFA) [6] = experiment: Post-emergence herbicidal glasshouse test on Setaria faberi; details: post-emergence; 1000 g/h; evaluated after 13 days
Method in brief: as §1

[7] = test system: Alopecurus myosuroides (ALOMY); experiment: Post-emergence herbicidal glasshouse test on Alopecurus myosuroides; details: post-emergence; 1000 g/h; evaluated after 13 days
Method in brief: as §1

[8] = test system: Echinochloa crus-galli (ECHCG); experiment: Post-emergence herbicidal glasshouse test on Echinochloa crus-galli; details: post-emergence; 1000 g/h; evaluated after 13 days
Method in brief: as §1

[9] = test system: Alopecurus myosuroides (ALOMY); experiment: Pre-emergence herbicidal glasshouse test on Alopecurus myosuroides; details: pre-emergence; 1000 g/h; evaluated after 13 days
Method in brief: as §1

[10] = test system: Ipomoea hederacea (IPOHE); experiment: Post-emergence herbicidal glasshouse test on Ipomoea hederacea; details: post-emergence; 1000 g/h; evaluated after 13 days
Method in brief: as §1

Setaria faberi (SETFA) [11] = experiment: Pre-emergence herbicidal glasshouse test on Setaria faberi; details: pre-emergence; 1000 g/h; evaluated after 13 days
Method in brief: as §1

[12] = test system: Amaranthus retoflexus (AMARE); experiment: Pre-emergence herbicidal glasshouse test on Amaranthus retoflexus; details: pre-emergence; 1000 g/h; evaluated after 13 days
Method in brief: as §1

SMILES	PRE Application SOLNI herbicidal damage (five point scale) (Solanum nigrum (SOLNI) [1])	POST Application AMARE herbicidal damage (five point scale) [2]	PRE Application IPOHE herbicidal damage (five point scale) [3]	POST Application SOLNI herbicidal damage (five point scale) (Solanum nigrum (SOLNI) [4])	PRE Application ECHCG herbicidal damage (five point scale) [5]	POST Application SETFA herbicidal damage (five point scale) (Setaria faberi (SETFA) [6])	POST Application ALOMY herbicidal damage (five point scale) [7]	POST Application ECHCG herbicidal damage (five point scale) [8]	PRE Application ALOMY herbicidal damage (five point scale) [9]	POST Application IPOHE herbicidal damage (five point scale) [10]	PRE Application SETFA herbicidal damage (five point scale) (Setaria faberi (SETFA) [11])	PRE Application AMARE herbicidal damage (five point scale) [12]
Cc1c(-c2cnn(C)c(=O)c2O)ccc(S(C)(=O)=O)c1C1=NOCC1 [Compound 1.018]	5 (5=80-100% damage)	5 (5=80-100% damage)	5 (5=80-100% damage)	5 (5=80-100% damage)	5 (5=80-100% damage)	5 (5=80-100% damage)	4 (4=60-79% damage)	5 (5=80-100% damage)	2 (2=20-39% damage)	5 (5=80-100% damage)	4 (4=60-79% damage)	5 (5=80-100% damage)
Cn1ncc(-c2cc(Cl)ccc2Cl)c(O)c1=O [Compound 1.099]	1 (1=0-19% damage)	3 (3=40-59% damage)	1 (1=0-19% damage)	2 (2=20-39% damage)	1 (1=0-19% damage)	1 (1=0-19% damage)	1 (1=0-19% damage)	1 (1=0-19% damage)	1 (1=0-19% damage)	2 (2=20-39% damage)	1 (1=0-19% damage)	1 (1=0-19% damage)
C=CCn1ncc(-c2ccccc2S(C)(=O)=O)c(O)c1=O [Compound 2.001]	5 (5=80-100% damage)	5 (5=80-100% damage)	5 (5=80-100% damage)	5 (5=80-100% damage)	5 (5=80-100% damage)	5 (5=80-100% damage)	5 (5=80-100% damage)	5 (5=80-100% damage)	5 (5=80-100% damage)	5 (5=80-100% damage)	5 (5=80-100% damage)	5 (5=80-100% damage)
COc1cccn(-c2cnn(C)c(=O)c2O)c1=O [Compound 1.070]	1 (1=0-19% damage)	3 (3=40-59% damage)	1 (1=0-19% damage)	4 (4=60-79% damage)	1 (1=0-19% damage)	4 (4=60-79% damage)	1 (1=0-19% damage)	4 (4=60-79% damage)	1 (1=0-19% damage)	1 (1=0-19% damage)	1 (1=0-19% damage)	1 (1=0-19% damage)
Cn1ncc(-n2ccc(C(F)(F)F)c(-c3ccc(C(F)(F)F)cc3)c2=O)c(O)c1=O [Compound 7.035]	5 (5=80-100% damage)	5 (5=80-100% damage)	3 (3=40-59% damage)	5 (5=80-100% damage)	5 (5=80-100% damage)	5 (5=80-100% damage)	5 (5=80-100% damage)	5 (5=80-100% damage)	5 (5=80-100% damage)	4 (4=60-79% damage)	5 (5=80-100% damage)	5 (5=80-100% damage)
Cn1ncc(-c2cccn(-c3cccc(C#N)c3)c2=O)c(O)c1=O [Compound 1.138]	1 (1=0-19% damage)	5 (5=80-100% damage)	1 (1=0-19% damage)	5 (5=80-100% damage)	1 (1=0-19% damage)	5 (5=80-100% damage)	1 (1=0-19% damage)	4 (4=60-79% damage)	1 (1=0-19% damage)	1 (1=0-19% damage)	1 (1=0-19% damage)	1 (1=0-19% damage)
Cn1nc(O)c(-c2ccc(C(F)(F)F)cc2S(C)(=O)=O)c(O)c1=O [Compound 2.056]	5 (5=80-100% damage)	5 (5=80-100% damage)	3 (3=40-59% damage)	5 (5=80-100% damage)	5 (5=80-100% damage)	5 (5=80-100% damage)	5 (5=80-100% damage)	5 (5=80-100% damage)	4 (4=60-79% damage)	5 (5=80-100% damage)	5 (5=80-100% damage)	5 (5=80-100% damage)
Cn1ncc(-n2ccc(C(F)(F)F)cc2=O)c(O)c1=O [Compound 1.078]	5 (5=80-100% damage)	5 (5=80-100% damage)	2 (2=20-39% damage)	5 (5=80-100% damage)	5 (5=80-100% damage)	5 (5=80-100% damage)	1 (1=0-19% damage)	5 (5=80-100% damage)	2 (2=20-39% damage)	4 (4=60-79% damage)	5 (5=80-100% damage)	5 (5=80-100% damage)
CC#Cc1ccc(-c2cnn(C)c(=O)c2O)c(S(C)(=O)=O)c1 [Compound 2.029]	5 (5=80-100% damage)	5 (5=80-100% damage)	1 (1=0-19% damage)	5 (5=80-100% damage)	5 (5=80-100% damage)	5 (5=80-100% damage)	5 (5=80-100% damage)	5 (5=80-100% damage)	5 (5=80-100% damage)	5 (5=80-100% damage)	3 (3=40-59% damage)	5 (5=80-100% damage)
